Test results from patent US20190117586A1, “METHODS OF PREVENTING OR TREATING PARKINSON'S DISEASE BY THE FARNESYLATION OF PARIS” (The Johns Hopkins University, priority 2016, published 2019).

How the values were obtained:
PGC-1α [1] = assay: PGC-1α levels in SH-SY5Y cells by immunoblot; type: cell-based; settings: SH-SY5Y cells
Description: (§1) The 9 compounds that activate the PGC-1α promoter in the presence of PARIS were evaluated to determine which compounds induce PGC-1α levels in SH-SY5Y cells (FIGS. 2A and 2B). […] The mRNA level of PGC-1α target genes including copper/zinc superoxide dismutase (SOD1), manganese SOD (SOD2), glutathione peroxidase (GPx1), catalase (CAT), nuclear respiratory factor-1 (NRF-1), mitochondrial transcription factor A (TFAM), mitochondrial uncoupling proteins (UCP2 and UCP3), and the oxidative phosphorylation regulators, ATP5b, cytochrome C (CytC) and cytochrome C oxidase (COX II and IV) were determined by real-time quantitative RT-PCR (qRT-PCR) (FIG. 2C).
(§2) Geraniol or geranylgeraniol have no effect on PGC-1α levels (FIG. 3H).

PGC-1α target genes = assay: mRNA of PGC-1α target genes in SH-SY5Y cells by real-time qRT-PCR; type: cell-based
Description: as §1

PGC-1α [2] = assay: Parkin knockdown (lentiviral shRNA-parkin) SH-SY5Y cells; type: cell-based
Description: Knockdown of parkin leads to a 2.7 fold increase in the level of PARIS and a 65% decrease of PGC-1α (FIGS. 2D and 2E). […] The mRNA levels of PGC-1α and its target genes were assessed after knocking down parkin by real-time qRT-PCR.

[3] = Farnesol concentration in brain and plasma of farnesol diet fed mice by mass spectrometry; type: in vivo; settings: 0.5% w/w trans-farnesol in AIN-76A diet; for concentration at 7 days: mouse, oral, 0.5 % w/w in diet
PGC-1α [4] = assay: PGC-1α level in brain regions of farnesol-fed mice; type: in vivo; settings: farnesol-fed mice versus normal mouse chow
Description: Farnesol is a natural organic compound in both plants and animals. Phosphate derivatives of farnesol are the building blocks of cholesterol in mammalian cells. […] The level of PGC-1α was measured from different brain regions in farnesol-fed mice. PGC-1α levels increase 2.7-fold in the olfactory bulb (OB), 1.6-fold in hippocampus (HIP), and 1.7-fold in substantia nigra (SN) as compared to that of mice on normal mouse chow (FIGS. 2H and 2I). […] In addition, mRNA levels of PGC-1α and a variety of PGC-1α's target genes in the STR, HIP, and SN of farnesol-fed mice were measured.

PGC-1α and NRF-1 = assay: shRNA knockdown of PARIS in SH-SY5Y cells; type: cell-based
PPARα and PPARγ = PPARα and PPARγ levels, target genes and PPAR responsive element in SH-SY5Y cells; type: cell-based
PARIS [5] = assay: PARIS farnesylation in SH-SY5Y cells transfected with Flag-tagged PARIS (immunoprecipitation); type: cell-based
Description: as §2
(§3) To confirm that farnesylation of PARIS requires FTase, siRNA-FTase α knockdown or FTI-277 inhibition of FTase in the setting of PARIS overexpression was performed (FIG. 4C). […] To ascertain whether the farnesylation of PARIS affects the DNA binding activity of PARIS on the IRS motif of the PGC-1α promoter, a chromatin immunoprecipitation assay (ChIP) was performed from SH-SY5Y transfected with GFP-tagged PARIS WT or GFP-tagged PARIS C631S. […] To examine the possibility that the farnesylation of PARIS alters its subcellular distribution, subcellular fractionation was used to monitor the levels of PARIS in cytosolic, membrane, soluble nuclear, and chromatin-bound nuclear fractions by immunoblot analysis (FIG. 4F).

PARIS [6] = assay: Subcellular fractionation of PARIS by immunoblot; type: cell-based
Description: as §3

PGC-1α promoter = PGC-1α promoter activity with PARIS WT or PARIS C631S mutant; type: cell-based; settings: PARIS WT; not observed with PARIS C631S mutant
cPK-KO mice = assay: Conditional adult parkin knockout (cPK-KO) mice; type: in vivo
Source text: In this setting, the level of farnesylated PARIS was monitored in the SN of cPK-KO mice fed with either chow diet or farnesol diet.
To generate Cre-flox conditional model of parkin knock out, an adeno-associated vector expressing GFP fused Cre recombinase (AAV-GFPCre) was stereotaxically introduced into the SN of exon 7 floxed parkin mice (parkin^Flox/Flox).

[7] = test system: AAV-PARIS injected C57BL/6J mice; type: in vivo
PPARγ = target: T1, PPARγ (Homo sapiens, UniProt P37231); settings: cited from earlier work
T1 sequence (P37231 1-505): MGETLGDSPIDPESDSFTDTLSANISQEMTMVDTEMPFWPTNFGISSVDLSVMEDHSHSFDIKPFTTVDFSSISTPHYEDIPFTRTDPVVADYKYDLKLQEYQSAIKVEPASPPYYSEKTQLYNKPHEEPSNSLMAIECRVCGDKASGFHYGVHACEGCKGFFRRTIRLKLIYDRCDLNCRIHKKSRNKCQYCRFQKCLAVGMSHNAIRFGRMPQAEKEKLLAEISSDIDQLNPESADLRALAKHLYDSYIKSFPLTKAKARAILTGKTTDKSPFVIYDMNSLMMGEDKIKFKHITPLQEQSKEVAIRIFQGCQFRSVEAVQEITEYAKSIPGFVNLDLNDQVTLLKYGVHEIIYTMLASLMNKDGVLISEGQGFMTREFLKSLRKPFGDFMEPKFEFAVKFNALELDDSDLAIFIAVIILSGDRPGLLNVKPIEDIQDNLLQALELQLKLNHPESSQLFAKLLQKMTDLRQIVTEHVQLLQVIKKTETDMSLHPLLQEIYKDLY

[8] = dietary farnesol in rats; cited from earlier work
[9] = dietary farnesol in rodents; cited from earlier work
[10] = SH-SY5Y, Flag-tagged PARIS, farnesol treatment 48 hours
[11] = farnesol diet from one week prior to injection

## CC(C)=CCC/C(C)=C/CC/C(C)=C/CO [farnesol, (2E,6E)-3,7,11-trimethyldodeca-2,6,10-trien-1-ol]
PGC-1α [1]
  PGC-1α level by immunoblot analysis: significantly increased
PGC-1α target genes
  PGC-1α, SOD1, and ATP5B mRNA levels: increased
  mRNA level of NRF-1: robustly increased
PGC-1α [2]
  level of PGC-1α: restores the level of PGC-1α
  level of parkin and PARIS: without affecting the level of parkin and PARIS
PGC-1α [2]; qRT-PCR
  mRNA levels of SOD2, TFAM, ATP5B, CYTC, and COX II: significantly increased
  reduction of mRNA of PGC-1α and NRF-1: rescued
[3]; 7 days
  increase of farnesol level in the brain versus control diet fed mice: 37%
[3]; brain
  concentration at 7 days: 155 ng/g
[3]; plasma, non-detectable on control diet
  concentration at 7 days: 113 ng/mL
PGC-1α [4]
  PGC-1α level increase, hippocampus (HIP): 1.6 fold
  PGC-1α level increase, olfactory bulb (OB): 2.7 fold
  PGC-1α level increase, substantia nigra (SN): 1.7 fold
  PGC-1α levels in cerebellum (CBM), brain stem (BS), striatum (STR), frontal cortex (CTX): No significant change
PGC-1α and NRF-1
  PGC-1α and NRF-1 levels after knockdown of PARIS: fails to enhance the levels further
PPARα and PPARγ
  activation of a PPAR responsive element: fails to activate
  levels of PPARα and PPARγ protein and mRNA and target genes ACOX1, CPT-1A, MCAD, LCAD: fails to influence
PARIS [5]; PARIS C631S mutant
  restoration of PGC-1α levels with PARIS C631S mutant: no effect
PARIS [5]; PARIS C631S mutant, in the presence of farnesol
  farnesylation of FLAG-PARIS C631S mutant: no farnesylation
PARIS [5]; PARIS WT
  PGC-1α level with PARIS WT: upregulation of PGC-1α
PARIS [5]; PARIS WT, farnesol treatment
  farnesylation of FLAG-PARIS WT: farnesylation is increased
PARIS [5]; [10]
  PARIS farnesylation: increases PARIS farnesylation in a dose-dependent manner
  PGC-1α accompanying PARIS farnesylation: increase in PGC-1α
PARIS [6]
  distribution of PARIS in cytoplasmic, membrane, and soluble nuclear fractions: no change
PARIS [6]; PARIS WT or C631S
  level of chromatin-bound PARIS: abolished the level of chromatin-bound PARIS WT but not PARIS C631S
PGC-1α promoter
  PGC-1α promoter activity: increase of PGC-1α promoter activity
cPK-KO mice; SN of cPK-KO mice, farnesol diet
  farnesylation of PARIS: enhanced farnesylation of PARIS
cPK-KO mice; cPK-KO mice, farnesol diet
  decrements of PGC-1α and NRF-1 levels in the SN: prevents the decrements of PGC-1α and NRF-1 levels
cPK-KO mice; cPK-KO, farnesol diet from 7 days prior to viral injection
  loss of dopamine neurons in the SN: completely and significantly prevents the loss of dopamine neurons
cPK-KO mice; control mice, farnesol diet
  PGC-1α and NRF-1 levels in the SN of control mice: increases PGC-1α and NRF-1 levels
cPK-KO mice; farnesol-fed versus normal chow-fed mice
  mRNA of PGC-1α, NRF-1, SOD2, TFAM, UCP2, CytC, COX II and COX 1 in the SN: upregulation
[7]; AAV injected mice, farnesol diet
  levels of PARIS WT or PARIS C631S: did not affect
[7]; AAV-PARIS WT, farnesol diet
  amphetamine-induced rotation behavior: restoration of amphetamine-induced rotation behavior
[7]; [11]
  dopamine neuronal survival, AAV-PARIS C631S mice: no effect
  loss of dopamine neurons, AAV-PARIS WT mice: completely prevents the loss of dopamine neurons
[7]; farnesol fed mice, two weeks post-AAV injection
  farnesylated PARIS in AAV-PARIS WT compared to AAV-PARIS C631S injected mice: robustly observed
PPARγ
  activation of PPARγ in vitro: capable of activating
[8]
  level of serum triglycerides, cholesterol: lowers
[9]
  cardioprotective effects: exhibits cardioprotective effects
